Assay [1] has as its target T1, cytoplasmic domain of the human VEGF receptor (VEGFR-2) (Homo sapiens, UniProt P35968).
T1 construct: The cytoplasmic domain of the human VEGF receptor (VEGFR-2) was expressed as a Histidine-tagged fusion protein; Histidine tag
As to the kind of experiment: KDR Assay. The class given is biochemical. Conditions: His-VEGFR-2; 3.6 μM ATP. Summed up:
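His-tagged human VEGFR-2 cytoplasmic domain from baculovirus-infected insect cells, acting on poly-Glu-Tyr (4:1)-coated plates with 3.6 μM ATP in Hepes pH 7.4 with MgCl2/MnCl2 and 5% final DMSO, 10 min at 25 °C. Phosphotyrosine detected by peroxidase-conjugated antibody ELISA at 492 nm; IC50 from blank-subtracted OD versus concentration.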

Assay [2] has as its system VEGF-induced EBD extravasation. The experiment in a line: VEGF-induced Dermal Extravasation in Guinea Pig (Miles Assay). The assay is classed as in vivo. Conditions: 75 mg/kg. The procedure: VEGF-induced Dermal Extravasation in Guinea Pig (Miles Assay). Male Hartley guinea pigs (300-600 g) were anesthetized with isofluorane, sheared, and given a single dose of drug or the respective vehicle. The guinea pigs were dosed orally unless indicated otherwise in Table 3. Ten minutes prior to the end of drug treatment, guinea pigs were anesthetized with isofluorane, and 0.5% Evans blue dye (EBD) in PBS (13-15 mg/kg dose of EBD) was injected intravenously. After 5 minutes, triplicate intradermal injections of 100 ng rhVEGF165 in 100 μl PBS and of 100 μl PBS alone were administered on the flank. After 20 minutes, each animal was euthanized with Pentosol, and the skin containing the intradermal injection sites was removed for image analysis.
Using an analog video camera coupled to a PC, an image of each trans-illuminated skin sample was captured, and the integrated optical density of each injection site was measured using ImagePro 4. For each skin sample, the difference between the mean optical density of the VEGF sites and mean optical density of the PBS sites is the measure of VEGF-induced EBD extravasation in that animal. These measured values were averaged per study group to determine the mean VEGF-induced EBD extravasation for each experimental condition, and the group means were then compared to assess inhibition of VEGF-induced EBD extravasation in the drug-treated groups relative to the vehicle-treated controls.
(§1) To determine the dose required for 50% inhibition (ID50), the percent inhibition data was plotted as a function of oral dose, using the ‘best-fit’ analysis within MicroSoft Excel software. The ID50 value was verified visually by using the plotted data (horizontal line from 50% y value, at intersection with best-fit line drop vertical line to x axis (dose)).

Assay [3] relates to VEGF induced increases in intracellular calcium levels in HUVEC (human umbilical vein endothelial cells). The experiment in a line: VEGF Stimulated Ca++ Signal in vitro (FLIPR). As to conditions: VEGF 5 ng/mL; for IC50: 0.01 to 10.0 μM. The assay is classed as cell-based. Summed up:
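HUVEC loaded with Fluo-4 (45 min, 37° C.), washed, then pre-incubated 30 min with compound (10 μM single dose or 0.01–10.0 μM; 0.1% DMSO) before 5 ng/mL VEGF. Fluorescence at 516 nm read by FLIPR; IC50 from % inhibition of max-min VEGF response.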

Assay [4] relates to Laser-induced Choroidal Neovascularization (CNV). As to the kind of experiment: Laser-induced Choroidal Neovascularization (CNV) in Rat (CNV Assay). The assay is classed as in vivo. Conditions: 80 mg/kg (sid), corn oil, oral. Here is the method:
Laser-induced Choroidal Neovascularization (CNV) in Rat (CNV Assay). CNV was induced and quantified in this model as previously described (Edelman and Castro. Exp. Eye Res. 2000; 71:523-533). On day 0, male Brown Norway rats (200-300 g) were anesthetized with 100 mg/kg Ketamine and 10 mg/kg Xylazine, and pupils were dilated with 1% Tropicamide. Using the blue-green setting of a Coherent Novus Argon Laser, 3 laser bums (90 mW for 0.1 s; 100 μm diameter) were given to each eye between the retinal vessels around the optic nerve head. […]
On day 10, rats were sacrificed with 100% CO2, and blood vessels were labeled by vascular perfusion with 10 mg/ml FITC-dextran (MW 2×10^6). Using an epifluorescence microscope (20×) coupled to a spot digital camera and a PC, images were obtained from the flat mounts of the RPE-choroid-sclera from each eye, and the area occupied by hyperfluorescent neovessels within each laser lesion was measured using ImagePro 4 software.
as §1

T1 sequence (P35968 786-1356): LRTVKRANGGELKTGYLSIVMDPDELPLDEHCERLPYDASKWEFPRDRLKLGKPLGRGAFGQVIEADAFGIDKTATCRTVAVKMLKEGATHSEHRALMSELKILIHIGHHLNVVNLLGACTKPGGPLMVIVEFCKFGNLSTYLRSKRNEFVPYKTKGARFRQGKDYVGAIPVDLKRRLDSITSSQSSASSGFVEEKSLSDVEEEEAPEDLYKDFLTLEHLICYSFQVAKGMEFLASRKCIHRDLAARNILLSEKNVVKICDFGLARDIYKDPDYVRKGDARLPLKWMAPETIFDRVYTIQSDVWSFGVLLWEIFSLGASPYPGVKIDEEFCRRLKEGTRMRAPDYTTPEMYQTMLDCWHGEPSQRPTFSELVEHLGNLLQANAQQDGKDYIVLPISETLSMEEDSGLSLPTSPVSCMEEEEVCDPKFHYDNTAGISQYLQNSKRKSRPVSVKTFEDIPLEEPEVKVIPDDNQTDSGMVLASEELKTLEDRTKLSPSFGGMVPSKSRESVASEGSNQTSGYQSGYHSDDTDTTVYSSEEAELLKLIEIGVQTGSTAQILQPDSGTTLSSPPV

One may read the IC50 as the concentration needed to halve the response being measured. Broadly, the inhibition is the relative decrease from the control value, in per cent. With `Cc1cccc2c1C(=CNc1ccc(OCCCN3CCCCC3)cc1)C(=O)N2` [Example 238, 4-Methyl-3-{[4-(3-piperidin-1-yl-propoxy)-phenylamino]-methylene}-1,3-dihydro-indol-2-one], the values for the IC50 in assay [1], in assay [3] and in assay [3] (Homo sapiens) were 60 nM, 780 nM and no more than 1000 nM, respectively. Moreover, in assay [2] (corn oil, oral), the “Miles Assay % inhibition” value is 60%. Also, the inhibition at 10 µM in assay [3] (Homo sapiens) was determined as 98.4%.
Taken in the same sequence, the figures for `CN1CCN(CCCCOc2ccc(NC=C3C(=O)Nc4ccccc43)cc2)CC1` [Example 208, 3-({4-[4-(4-Methyl-piperazin-1-yl)-butoxy]-phenylamino}-methylene)-1,3-dihydro-indol-2-one] were 260 nM, 530 nM, no more than 1000 nM, 32% and 99%.
On to `CN(C)c1ccc(NC=C2C(=O)Nc3ccccc32)cc1` [Example 156, 3-[(4-Dimethylamino-phenylamino)-methylene]-1,3-dihydro-indol-2-one], for which the IC50 in assay [1] was 510 nM; in assay [3], 830 nM; in assay [3] (Homo sapiens), no more than 1000 nM. In assay [2] (PEG400, oral), the “Miles Assay % inhibition” value worked out at 100%. Further, the inhibition at 10 µM in assay [3] (Homo sapiens) was 95.4%.
Turning to `CCN(CC)CCCCOc1ccc(NC=C2C(=O)Nc3ccccc32)cc1` [Example 207, 3-{[4-(4-Diethylamino-butoxy)-phenylamino]-methylene}-1,3-dihydro-indol-2-one], the IC50 in assay [1] was 240 nM; in assay [3], 510 nM; in assay [3] (Homo sapiens), no more than 1000 nM. The “Miles Assay % inhibition” value in assay [2] (corn oil, oral) came to 80%. In addition, the inhibition at 10 µM in assay [3] (Homo sapiens) was found to be 98.6%.
Regarding `CN1CCN(c2ccc(NC=C3C(=O)Nc4ccccc43)cc2)CC1` [Example 157, 3-{[4-(4-Methyl-piperazin-1-yl)-phenylamino]-methylenel}-1,3-dihydro-indol-2-one], the concentration for half-maximal inhibition (IC50) in assay [1] amounted to 250 nM. Besides, the “Miles Assay % inhibition” value in assay [2] (PEG400, oral) came to 38%. In assay [3] (Homo sapiens), the inhibition at 10 µM is 97.9%.
Turning to `O=C1Nc2ccccc2C1=CNc1ccc(OCCCCN2CCCCC2)cc1` [Example 209, 3-{[4-(4-Piperidin-1-yl-butoxy)-phenylamino]-methylene}-1,3-dihydro-indol-2-one], the concentration for half-maximal inhibition (IC50) in assay [1] came to 240 nM. Moreover, the “Miles Assay % inhibition” value was found to be 79% in assay [2] (PEG400, oral) and 84% in assay [2] (corn oil, oral). Also, the “CNV Assay % inhibition” value in assay [4] stood at 95%. The inhibition at 10 µM in assay [3] (Homo sapiens) is 98.6%.
For `O=C1Nc2ccccc2C1=CNc1ccc(OCCCN2CCCC2)cc1` [Example 216, 3-{[4-(3-Pyrrolidin-1-yl-propoxy)-phenylamino]-methylene}-1,3-dihydro-indol-2-one], the IC50 in assay [1] is 340 nM; in assay [3], 570 nM; in assay [3] (Homo sapiens), no more than 1000 nM. Also, the “Miles Assay % inhibition” value in assay [2] (PEG400, oral) amounted to 91%. For the same compound, in assay [3] (Homo sapiens), the inhibition at 10 µM came out at 95.3%.
Regarding `Nc1cccc(NC=C2C(=O)Nc3ccccc32)c1` [Example 211, 3-[(3-Amino-phenylamino)-methylene]-1,3-dihydro-indo1-2-one], the figures for the IC50 in assay [1], in assay [3] and in assay [3] (Homo sapiens) were 460 nM, 660 nM and no more than 1000 nM, respectively. Moreover, the “Miles Assay % inhibition” value in assay [2] (PEG400, oral) is reported as 38%. Besides, the inhibition at 10 µM in assay [3] (Homo sapiens) was determined as 96.7%.
Compound `Cc1cccc2c1C(=CNc1ccc(N3CC(C)OC(C)C3)cc1)C(=O)N2` (centres unmarked) [Example 220, 3-{[4-(2,6-Dimethyl-morpholin-4-yl)-phenylamino]-methylene}-4-methyl-1,3-dihydro-indol-2-one] displayed an IC50 in assay [1] of 60 nM. Also, in assay [2] (PEG400, oral), the “Miles Assay % inhibition” value was determined as 39%. Further, the inhibition at 10 µM in assay [3] (Homo sapiens) stood at 94.9%.
For `CC1CN(c2ccc(NC=C3C(=O)Nc4ccc(F)cc43)cc2)CC(C)O1` (centres unmarked) [Example 219, 3-{[4-(2,6-Dimethyl-morpholin-4-yl)-phenylamino]-methylene}-5-fluoro-1,3-dihydro-indol-2-one], the IC50 in assay [1] is 220 nM; in assay [3] it was 620 nM; in assay [3] (Homo sapiens), no more than 1000 nM. Further, the “Miles Assay % inhibition” value in assay [2] (PEG400, oral) is 28%. Further, in assay [3] (Homo sapiens), the inhibition at 10 µM came to 97.4%.
In the case of `Cc1cccc2c1C(=CNc1ccc(N)cc1)C(=O)N2` [Example 181, 3-[(4-Amino-phenylamino)-methylene]-4-methyl-1,3-dihydro-indol-2-one], in assay [1], the IC50 was 350 nM. In addition, in assay [2] (PEG400, oral), the “Miles Assay % inhibition” value turned out to be 38%. In assay [3] (Homo sapiens), the inhibition at 10 µM stood at 97.7%.
As to `O=C1Nc2ccccc2C1=CNc1ccc(OCCCCN2CCOCC2)cc1` [Example 206, 3-{[4-(4-Morpholin-4-yl-butoxy)-phenylamino]-methylene}-1,3-dihydro-indol-2-one], the IC50 in assay [1] is 240 nM; in assay [3], 670 nM; in assay [3] (Homo sapiens), no more than 1000 nM. Besides, the “Miles Assay % inhibition” value in assay [2] (corn oil, oral) was determined as 74%. For the same compound, in assay [3] (Homo sapiens), the inhibition at 10 µM amounted to 96.3%.
In assay [1], `CC1CN(c2ccc(NC=C3C(=O)Nc4cc(F)ccc43)cc2)CC(C)O1` (centres unmarked) [Example 229, 3-{[4-(2,6-Dimethyl-morpholin-4-yl)-phenylamino]-methylene}-6-fluoro-1,3-dihydro-indol-2-one] came in with an IC50 of 110 nM. Also, the “Miles Assay % inhibition” value in assay [2] (PEG400, oral) is recorded as 97%. The inhibition at 10 µM in assay [3] (Homo sapiens) is 97.2%.
For `O=C1Nc2ccccc2C1=CNc1ccc(OCCCCN2CCCC2)cc1` [Example 179, 3-{[4-(4-Pyrrolidin-1-yl-butoxy)-phenylamino]-methylene}-1,3-dihydro-indol-2-one], the IC50 was 310 nM in assay [1], 640 nM in assay [3] and no more than 1000 nM in assay [3] (Homo sapiens). Further, the “Miles Assay % inhibition” value in assay [2] (PEG400, oral) is recorded as 65%. The inhibition at 10 µM in assay [3] (Homo sapiens) was determined as 97.3%.
As to `O=C1Nc2ccccc2C1=CNc1ccc(OCCCN2CCOCC2)cc1` [Example 215, 3-{[4-(3-Morpholin-4-yl-propoxy)-phenylamino]-methylene}-1,3-dihydro-indol-2-one], the IC50 in assay [1] was 340 nM; in assay [3], 670 nM; in assay [3] (Homo sapiens), no more than 1000 nM. Moreover, the “Miles Assay % inhibition” value in assay [2] (PEG400, oral) amounted to 53%. Moreover, the inhibition at 10 µM in assay [3] (Homo sapiens) was determined as 96.7%.
In assay [1], `CCN(CC)CCCOc1ccc(NC=C2C(=O)Nc3ccccc32)cc1` [Example 214, 3-{[14-(3-Diethylamino-propoxy)-phenylamino]-methylene}-1,3-dihydro-indol-2-one] came in with an IC50 of 330 nM. The “Miles Assay % inhibition” value is on record as 61% in assay [2] (PEG400, oral) and 78% in assay [2] (corn oil, oral). In assay [3] (Homo sapiens), the inhibition at 10 µM came to 97.3%.

The values above are taken from US20030225152A1, “3-(Arylamino)methylene-1, 3-dihydro-2h-indol-2-ones as kinase inhibitors” (priority 2001, published 2003).
